Among the data in patent US20240059703A1 (AMGEN INC., priority 2021, published 2024) are IC50 values, retold here.

Structures are written as SMILES. A value given as a limit tells only on which side of the number the result lay.

For experiment [1], the system named is A549 (human lung carcinoma) cells. As to the kind of experiment: Cell Viability Assay (CellTiter-Glo), A549. The experiment is classed as cell-based. The procedure, abridged: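 MIA PaCa-2 or A549 cells in RPMI 1640 with 10% FBS were seeded at 1.67E+04 cells/mL and incubated overnight. Serially diluted compound was then added for 72 h at 37° C, 5% CO2. Viability read by CellTiter-Glo luminescence, normalized to DMSO, with IC50 from a 4-parameter logistic fit.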
(ATP-based viability assays read luminescence as a measure of living cells.)

Experiment [2] has as its system MIA PaCa-2 (human pancreatic carcinoma) cells. As to the kind of experiment: Cell Viability Assay (CellTiter-Glo), MIA PaCa-2. The experiment is classed as cell-based. The method, then:
Serially-diluted compound or DMSO was added to the cells, and plates were incubated at 37° C., 5% CO2 for 72 h. Cell viability was measured using a CellTiter-Glo® Luminescent Cell Viability Assay kit (Promega) according to the manufacturer's protocol. The luminescence signal of treated samples was normalized to DMSO control, and data were analyzed using a 4-parameter logistic model to calculate IC50 values.

A further experiment addresses KRAS G12C (Homo sapiens (Human), UniProt P01116, C118A/G12C). Briefly: 2 h coupled exchange assay. It counts as biochemical. Particulars: Avg 2 h Coupled exchange IC50, 2 h compound pre-incubation. As for the experimental part: The term “2 h coupled exchange assay” or “20 h coupled exchange assay” as used herein refers to the assay described in the Section entitled “BIOLOGICAL EVALUATION.”

Where [3] appears, read: SOS-mediated nucleotide exchange.

Chain of KRAS G12C (P01116 other isoform, or with tags, fused parts or gaps G12C/C118A): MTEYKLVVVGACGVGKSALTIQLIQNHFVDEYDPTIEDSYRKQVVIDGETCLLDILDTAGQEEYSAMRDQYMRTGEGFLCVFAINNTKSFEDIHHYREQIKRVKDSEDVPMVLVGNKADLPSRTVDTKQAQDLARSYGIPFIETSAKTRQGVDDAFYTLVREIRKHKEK

One may read the IC50 as the concentration at which inhibition is half-maximal. Lower therefore signals higher potency. Turning to `C=CC(=O)N1CC2(CCN(c3nc4c(c(-c5ccccc5C)c3C#N)CC[C@@H](c3scnc3C)C4)C2)C1` (single isomer, unassigned) [Example 23-3], the IC50 was more than 5000 nM in experiment [1] (Homo sapiens, A549, 72 h); 2520 nM in experiment [2] (72 h); 107 nM on KRAS G12C.
With `C=CC(=O)N1CC2(CCN(c3nc4c(c(-c5c(C)c(Cl)cc6cnn(C)c56)c3C)COC(C)(C)C4)C2)C1` (single isomer, unassigned) [Example 14-89, (P)-1-(6-(4-(5-chloro-1,6-dimethyl-1H-indazol-7-yl)-3,7,7-trimethyl-7,8-dihydro-5H-pyrano[4,3-b]pyridin-2-yl)-2,6-diazaspiro[3.4]octan-2-yl)-2-propen-1-one], the half-inhibitory concentration (IC50) was found to be 1800 nM in experiment [1] (Homo sapiens, A549, 72 h); 80 nM in experiment [2] (Homo sapiens, MIA PaCa-2, 72 h); 81 nM against KRAS G12C.
With `C=CC(=O)N1CC2(CCN(c3nc4c(c(-c5c(C)ccc6cnn(C)c56)c3C)CCC(C)(C)C4)C2)C1` [Example 2-19, 1-(6-(4-(1,6-dimethyl-1H-indazol-7-yl)-3,7,7-trimethyl-5,6,7,8-tetrahydro-2-quinolinyl)-2,6-diazaspiro[3,4]octan-2-yl)-2-propen-1-one], the IC50 in experiment [1] (Homo sapiens, A549, 72 h) is more than 5000 nM; in experiment [2] (Homo sapiens, MIA PaCa-2, 72 h), 392 nM; on KRAS G12C (setting [3]) it was 104 nM.
Take `C=CC(=O)N1CC2(CCN(c3nc4c(c(-c5cccc(F)c5O)c3C#N)CCN(c3scnc3C)C4)C2)C1` [Example 21-14, 4-(3-fluoro-2-hydroxyphenyl)-7-(4-methyl-1,3-thiazol-5-yl)-2-(2-(2-propenoyl)-2,6-diazaspiro[3.4]octan-6-yl)-5,6,7,8-tetrahydro-1,7-naphthyridine-3-carbonitrile]: the IC50 is more than 5000 nM in experiment [1] (Homo sapiens, A549, 72 h); more than 5000 nM in experiment [2] (Homo sapiens, MIA PaCa-2, 72 h); 35 nM at KRAS G12C.
As for `C=CC(=O)N1CC2(CCN(c3nc4c(c(-c5cc(O)ccc5Cl)c3C#N)CCN(c3scnc3C)C4)C2)C1` [Example 21-13, 4-(2-chloro-5-hydroxyphenyl)-7-(4-methyl-1,3-thiazol-5-yl)-2-(2-(2-propenoyl)-2,6-diazaspiro[3.4]octan-6-yl)-5,6,7,8-tetrahydro-1,7-naphthyridine-3-carbonitrile], the concentration for half-maximal inhibition (IC50) in experiment [1] (Homo sapiens, A549, 72 h) was more than 5000 nM; in experiment [2] (Homo sapiens, MIA PaCa-2, 72 h), 1070 nM; on KRAS G12C, 14 nM.
As for `C=CC(=O)N1CC2(CCN(c3nc4c(c(-c5c(C)ccc6[nH]ncc56)c3C#N)CCCC4(F)F)C2)C1` [Example 13-96, 2-(2-acryloyl-2,6-diazaspiro[3.4]octan-6-yl)-8,8-difluoro-4-(5-methyl-1H-indazol-4-yl)-5,6,7,8-tetrahydroquinoline-3-carbonitrile], the IC50 in experiment [1] (Homo sapiens, A549, 72 h) was more than 5000 nM; in experiment [2] (Homo sapiens, MIA PaCa-2, 72 h), more than 5000 nM; at KRAS G12C (setting [3]), 325 nM.
For `C=CC(=O)N1CC2(CCN(c3nc4c(c(-c5c(C)ccc6[nH]ncc56)c3C#N)CC3(CC4)CC3)C2)C1` [Example 13-11, 4′-(5-methyl-1H-indazol-4-yl)-2′-(2-(2-propenoyl)-2,6-diazaspiro[3.4]octan-6-yl)-7′,8′-dihydro-5′H-spiro[cyclopropane-1,6′-quinoline]-3′-carbonitrile], the IC50 amounted to 4240 nM in experiment [1] (Homo sapiens, A549, 72 h); 537 nM in experiment [2] (Homo sapiens, MIA PaCa-2, 72 h); 67 nM at KRAS G12C (setting [3]).
As to `C=CC(=O)N1CC2(CCN(c3nc4c(c(-c5ccc(F)cc5Cl)c3C#N)CCC(c3scnc3C)=C4)C2)C1` (atropisomer, axis not shown; (P)) [Example 23-33, (P)-4-(2-chloro-4-fluorophenyl)-7-(4-methyl-1,3-thiazol-5-yl)-2-(2-(2-propenoyl)-2,6-diazaspiro[3.4]octan-6-yl)-5,6-dihydro-3-quinolinecarbonitrile], the IC50 in experiment [1] (72 h) is more than 5000 nM; in experiment [2] (72 h), 606 nM; at KRAS G12C it was 101 nM.
